From US9447114B2, “Thieno- and furo[2,3-d]pyrimidine-2,4[1H,3H]-dione derivatives” (Hydra Biosciences, Inc., priority 2014, dated 2016)

Columns and labels:
TRPC5 channel [1] = target: T1, TRPC5 channel (Homo sapiens (Human), UniProt Q9UL62); assay: Whole-cell patch clamp of TRPC5 current; type: cell-based; conditions: TRPC5-expressing HEK293 TREx cells, current activated by 80 μM LaCl3 and 1.4 μM free Ca2+ in pipette, IC50 estimated
Excerpt: Patch clamp experiments permit the detection of currents through the TRPC5 channel in the cell line described above. In normal whole-cell patch clamp recordings, a glass electrode is brought into contact with a single cell and a high-resistance (gigaohm) seal is established with the cell membrane. The membrane is then ruptured to achieve the whole-cell configuration, permitting control of the voltage of the cell membrane and measurement of currents flowing across the membrane using the amplifier attached to the electrode and resulting in the replacement of cytoplasm with the pipette solution. A perfusion system permits control of the extracellular solution, including the addition of blockers and activators of the current. The current can be activated by including 1.4 μM free Ca^2+ in the pipette (intracellular) solution, and 80 μM LaCl3 in the extracellular solution.
TRPC5 cells were induced 20-48 hours, removed from growth plates, and replated at low density (to attain good single-cell physical separation) on glass coverslips for measurement. In some cases, cells were grown in low density overnight on glass coverslips. Patch clamp recordings were made in the whole-cell mode with a holding potential of −40 mV. Every 5 seconds, a voltage ramp was applied from −120 to +100 mV, 400 ms in duration. Currents elicited were quantified at −80 mV and +80 mV. The internal solution consisted of 140 mM cesium aspartate, 10 mM HEDTA, 2 mM CaCl2, 2.27 mM MgCl2 and 10 mM HEPES, pH 7.2, with 1,400 nM calculated free Ca^2+. The external solution consisted of 150 mM NaCl, 4.5 mM KCl, 1 mM MgCl2, 2 mM CaCl2 10 mM HEPES, 10 mM glucose, 1 mM EGTA, pH 7.4. Upon addition of LaCl3, TRPC5 current was induced only in TRPC5-expressing cells and not in parental HEK293 TREx cells. Removal of the LaCl3 stimulus causes most of the current to go away. Potential blockers were tested for ability to block both inward and outward currents in the continued presence of LaCl3.
IC50 of a compound of Formula (I) was estimated by testing the compound at 5 μM and 500 nM. […] IC50 for a compound of Formula (I) between 500 nM and 5 μM was similarly estimated.

TRPC5 channel [2] = target: T1, TRPC5 channel; assay: High throughput screening assay: intracellular Ca2+ rise, Fluo4 cell-based fluorescence; conditions: HEK293/TREx cells inducibly expressing TRPC5, high-Ca2+ Ringer, 14 mM Ca2+ final, triplicate, 0.027-20 μM
Excerpt: The assay depended on detection of the rise in intracellular Ca2+ concentration ([Ca2+]i) following channel activation in cells inducibly expressing the TRPC5 channel. Ca2+ rise was quantified with the use of fluorescent Ca2+ indicators that were loaded into cells and thereafter indicated the [Ca2+]i Ca2+ influx followed activation of the TRPC5 channel. Compounds inhibiting the [Ca2+]i rise were considered hits for further investigation.
The commercially available HEK293/TREx line (Invitrogen) was stably transfected with a TRPC5 construct and screened by conventional calcium imaging to find clones with TRPC5 expression following stimulation with 1 μg/ml tetracycline. These cells were maintained in the growth medium recommended by the manufacturer supplemented with 100 μg/ml hygromycin to promote retention of the TRPC5 construct. After growing to near confluency, cells were plated at a density of ˜35,000 cells/well in 384 well CellBind plates (Corning) in the presence of 1 μg/ml tetracycline, and allowed to grow for 20-30 hrs. A nearly confluent monolayer resulted. Cells were then loaded with Ca2+ dye: Fura-2/AM or Fluo4/AM was added to the wells to a final concentration of 4 μM or 0.5 μM, respectively, and incubated for 80 min or 60 min, respectively, at room temperature. Supernatant was then removed from the cells by inverting plates with a sharp flick, and 25 μl Hank's Balanced Salt Solution (HBSS; 0.185 g/l D-glucose, 0.9767 g/l MgS04 (anhydrous), 0.4 g/l KCl, 0.06 g/l KH2PO4 (anhydrous), 0.35 g/l NaHCO3, 8.0 g/l NaCl, and 0.04788 g/l Na2HPO4 (anhydrous); pH 7.4) was then added to each well. Following ˜0.5 hour for recovery from loading, cells were assayed using the Hamamatsu FDSS 6000 system, which permitted illumination alternately at 340 nm and 380 nm for Fura-2 experiments, or at 485 nm for Fluo4 experiments. Frames were acquired at a rate of 0.2 Hz. During the assay, the plates were continuously vortexed, with pipette mixing of wells following addition of each reagent. For the screening assay, 26 μl of a diluted compound stock (at 50 μM) was added to each well for 2 minutes following the collection of a short (4 frame) baseline. 13 μl 62 mM high-Ca2+Ringer solution (4.17 ml of normal ringer (with 2 mM Ca2+) plus 5.83 ml of isotonic calcium ringer (105 mM Ca2+; in this ringer all sodium has been replaced with calcium)) was then added to each well, achieving a final concentration of 14 mM Ca2+ and 10 μM test compound. Data was collected for ˜3 minutes following addition of high Ca2+Ringer, where the fluorescent intensity (for Fluo4) and the F340/F380 ratio (for Fura-2) were proportional to the [Ca2+]i Negative controls consisted of HEK293/TREx TRPC5 cells exposed to high Ca2+ solution, but no compound. Positive control conditions consisted of addition of 2-APB, a promiscuous blocker of TRPC5 and other channels, to columns 23 and 24 of the plates, to a final concentration of 200 μM. These controls defined a screening window, and “hits” were defined as those compounds inhibiting the fluorescence response by at least 40%. IC50 values were determined for compounds defined as “hits.” The Fluo4 cell-based fluorescence assay was used to determine the intracellular Ca2+ concentration in the presence of varying drug concentration. Final concentrations of compounds tested were 20 μM, 6.667 μM, 2.222 μM, 0.741 μM, 0.247 μM, 0.082 μM, and 0.027 μM. Compounds were tested in triplicate at all concentrations. Standard software was used to fit IC50 curves.
Additionally or alternatively, efficacy can be represented as % inhibition in the presence (of a given concentration of compound) versus the absence of compound or in comparison to a control compound. For example, efficacy can be represented as % inhibition of ion flux in the presence versus the absence of compound.

T1 sequence (Q9UL62 whole entry, the tested form may be a part): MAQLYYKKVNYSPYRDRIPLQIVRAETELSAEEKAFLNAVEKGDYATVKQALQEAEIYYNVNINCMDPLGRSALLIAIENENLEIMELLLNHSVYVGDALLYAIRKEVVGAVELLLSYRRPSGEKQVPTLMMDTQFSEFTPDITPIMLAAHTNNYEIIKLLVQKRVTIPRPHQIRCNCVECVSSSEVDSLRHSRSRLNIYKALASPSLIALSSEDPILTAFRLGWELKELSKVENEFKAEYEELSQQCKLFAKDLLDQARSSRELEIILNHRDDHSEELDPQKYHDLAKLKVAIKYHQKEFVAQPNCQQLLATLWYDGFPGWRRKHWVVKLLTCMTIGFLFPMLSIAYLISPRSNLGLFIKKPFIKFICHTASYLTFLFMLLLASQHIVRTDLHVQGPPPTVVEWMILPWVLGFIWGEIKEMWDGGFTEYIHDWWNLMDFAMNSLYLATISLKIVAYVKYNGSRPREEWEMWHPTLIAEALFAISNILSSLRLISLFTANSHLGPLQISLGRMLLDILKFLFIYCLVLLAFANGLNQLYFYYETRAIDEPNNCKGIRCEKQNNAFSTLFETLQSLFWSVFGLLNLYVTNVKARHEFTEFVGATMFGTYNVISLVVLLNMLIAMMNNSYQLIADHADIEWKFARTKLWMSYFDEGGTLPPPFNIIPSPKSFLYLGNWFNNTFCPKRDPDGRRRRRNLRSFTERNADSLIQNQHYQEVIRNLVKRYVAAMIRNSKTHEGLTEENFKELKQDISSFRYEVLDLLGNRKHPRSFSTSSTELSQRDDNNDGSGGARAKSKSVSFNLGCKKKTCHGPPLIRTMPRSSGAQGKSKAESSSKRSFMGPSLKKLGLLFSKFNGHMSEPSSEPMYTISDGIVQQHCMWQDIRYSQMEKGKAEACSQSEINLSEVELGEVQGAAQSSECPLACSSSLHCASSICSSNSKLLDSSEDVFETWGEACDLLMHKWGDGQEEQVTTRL

Which results are given for `Cn1c(=O)n(CCCO)c(=O)c2c(Cc3ccc(Cl)cc3)c(-c3cccc(Cl)c3)oc21` [Compound 27, 5-(4-chlorobenzyl)-6-(3-chlorophenyl)-3-(3-hydroxypropyl)-1-methylfuro[2,3-d]pyrimidine-2,4(1H,3H)-dione]?
IC50 (TRPC5 channel [1]): < 1 nM; IC50 (TRPC5 channel [2]): 134 nM
